A short description of series [1]: Pharmacokinetics and oral bioavailability in the mouse. It counts as in vivo. The settings on record: for F on AUC: 10 mg/kg, ratio of oral to IV dose-normalized plasma AUC; for clearance / Vd / AUC / half-life: male, Balb Nu/Nu, plasma, mean value; for clearance / Vd: 10 mg/kg intravenous bolus; for clearance: read-out: CL(IV bolus); for Vd: read-out: Vdss (IV bolus); for AUC / half-life: 10 mg/kg oral; for half-life: read-out: T½ (oral) (converted).
Experimental: The compounds were formulated in 10% tween 80/dextrose for intravenous bolus administration while oral administrations were performed using the compounds formulated in 0.5% methylcellulose. A single administration at the dose of 10 mg/kg was given and three male animals for each route were used. […] Plasma samples were prepared by plasma proteins precipitation adding 200 µl of methanol to 10 µl of plasma in a 96 well plate. […] The supernatant was considered as final extract and injected onto the LC-MS-MS system (HPLC system: Hewlett Packard 1100 series using Atlantis HILIC Silica 50*2.1 mm 5.0 μM analytical column; MS instrument: Perkin Elmer SCIEX API 2000 and ionization performed with Turbo Ion Spray in positive ion mode). Lower limit of quantification is 5.0 ng/ml, upper limit of quantification is 10000 ng/ml. […] Non-compartmental method (linear trapezoidal rule and linear regression analysis of natural log-transformed plasma concentrations vs. time data) was used. After intravenous dosing, C0 was set equal to C0.083, Absolute bioavailability (F) was calculated from the ratio of average oral to IV (intravenous) dose-normalized plasma AUC (area under curve) values.

A further series addresses PARP-1 FL (Homo sapiens, UniProt P09874). The experiment in a line: Fluorescence polarization probe displacement assay. The conditions noted are these: for DC50: half maximal displacement concentration. Type of series: binding.
The subject of series [2] is hydrogen peroxide induced PAR formation in HeLa cells. Nature of the series: Cellular PAR assay (inhibition of hydrogen peroxide induced PAR formation). Type of series: cell-based. The conditions noted are these: Homo sapiens, 0.1 mM hydrogen peroxide 15 min.
Experimental: Compounds potencies were evaluated by measuring the inhibition of poly (ADP-ribose) (PAR) chains formation as a marker for PARP-1 inhibition.
Cellular activity of PARP-1 inhibitors was assessed by measuring the inhibition of the hydrogen peroxide induced PAR formation in HeLa cells (ECACC). Cellular PAR levels were measured by immunocytochemistry and quantified using an ArrayScan vTi instrument (Cellomics Thermo Scientific).
Studies were performed as follows: 6000 cells/well were seeded in 96 well plates (Perkin Elmer) in MEM/10% FCS and incubated for 24 hours at 37° C., 5% carbon dioxide. Test compounds were then added at the required concentration for 30′. […] Concentration curves were prepared in MEM/10% FCS from compound stocks in DMSO and final DMSO concentration was 0.002% (v/v). Duplicate wells for each concentration point were prepared with a typical highest compound concentration of 20 μM and serial dilution 1:3. […] Non-specific binding sites were blocked by incubating wells for 30 min in PBS containing 5% (w/v) FBS 0.05% tween20. […] After washing further 3 times in PBS, cellular PAR immunoreactivity was assessed using the ArrayScan vTi instrument, with a Zeiss 10×0.5 N.A. objective, and applying the Cytotoxicity.V3 algorithm (Cellomics/Thermo Fisher) with a XF100 filter. At least 10 fields, corresponding to at least 900 cells, were read for each well.
The following formula is used: IC50=Bottom+(Top−Bottom)/(1+10^((Log EC50−X))); X is the logarithm of concentration. IC50 is the response; IC50 starts at Bottom and goes to Top with a sigmoid shape.
In series [3] the test system is Capan-1 human pancreatic cancer tumors. The experiment in a line: In vivo efficacy as single agent, Capan-1 BRCA-2 mutated mouse model. The conditions noted are these: oral; for Toxicity: body weight reduction and survival. The source says: Each group included seven animals. The treatment started one day after randomization.
The target of the next series is PARP-2 FL (Homo sapiens, UniProt Q9UGN5). Nature of the series: Fluorescence polarization probe displacement assay. It counts as binding. The conditions noted are these: for DC50: compound P1 as the probe. Background: Polarisation of emitted light reports the rotation of a fluorescent probe.
The target in another series is T1, PARP-3 FL (Homo sapiens, UniProt Q9Y6F1).
T1 sequence (Q9Y6F1 1-533): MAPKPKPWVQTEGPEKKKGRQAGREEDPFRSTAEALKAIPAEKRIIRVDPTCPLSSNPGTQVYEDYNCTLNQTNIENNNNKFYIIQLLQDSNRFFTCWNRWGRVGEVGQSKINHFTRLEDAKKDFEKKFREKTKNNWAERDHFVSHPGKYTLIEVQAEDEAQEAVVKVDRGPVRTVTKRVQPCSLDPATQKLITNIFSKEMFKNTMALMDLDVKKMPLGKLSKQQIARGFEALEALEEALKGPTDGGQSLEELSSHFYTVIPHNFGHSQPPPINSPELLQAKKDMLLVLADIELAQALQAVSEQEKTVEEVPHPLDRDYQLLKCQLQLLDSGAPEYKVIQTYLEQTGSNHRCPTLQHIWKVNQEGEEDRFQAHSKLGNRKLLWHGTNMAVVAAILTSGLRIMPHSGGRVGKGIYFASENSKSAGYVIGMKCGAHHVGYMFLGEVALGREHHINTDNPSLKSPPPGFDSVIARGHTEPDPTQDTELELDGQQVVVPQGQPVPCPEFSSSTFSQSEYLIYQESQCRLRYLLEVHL
The experiment in a line: Fluorescence polarization probe displacement assay. Type of series: binding. The settings on record: compound P1 as the probe.

In series [4] the test system is Capan-1 human pancreatic cancer tumors. The conditions noted are these: for T − C: delay to reach 1 g.
Text: Balb, athymic Nu/Nu male mice, from Harlan (Italy), were maintained in agreement with the European Communities Council Directive no. 86/609/EEC concerning the protection of animals used for experimental or other scientific purposes, in cages with paper filter cover, food and bedding sterilized and acidified water. Fragments of Capan-1 human pancreatic cancer tumors were implanted subcutaneously. Mice bearing a palpable tumor (100-200 mm^3) were selected and randomized into control and treated groups. Each group included seven animals. The treatment started one day after randomization. Compound of formula (I) was administered by oral route as a methocel suspension at the doses of 100 mg/kg daily or twice a day for the indicated times.
Compound (39) was administered by oral route at the dose of 100 mg/kg twice a day for ten consecutive days (days 1 to 10). […] Tumor growth and body weight were measured every 3 days. Tumor growth was assessed by caliper. The two diameters were recorded and the tumor weight was calculated according to the following formula: length (mm)×width^2/2. […] This delay (T−C value) was defined as the difference of time (in days) required for the treatment group (T) and the control group (C) tumors to reach a predetermined size (1 g). Toxicity was evaluated on the basis of body weight reduction and animal survival rate.
Series [5] deals with ovarian cancer patients with confirmed BRCA-1 mutations. The conditions noted are these: preliminary phase I data; cited from earlier work.
Setting [6] is: 100 mg/kg, days 1-20 once a day.
Setting [7] is: 150 mg/kg, days 1-14 twice a day.
The mark [8] stands for this setting: Compound (39) alone, oral 100 mg/kg twice a day, days 1 to 10.
Where [9] appears, read: 100 mg/kg, days 1-10 twice a day.
Where [10] appears, read: temozolomide alone, oral 50 mg/kg once a day, days 3, 4, 5, 6 and 7.

Consider six compounds from patent US8993594B2, “Isoquinolin-1(2H)-one derivatives as PARP-1 inhibitors” (Nerviano Medical Sciences S.R.L., priority 2009, dated 2015).

The structures appear in SMILES notation. Like-named read-outs stand apart in the source and are kept apart here. Bounds are passed on as bounds.

PARP-1 FL, sequence (P09874 whole entry): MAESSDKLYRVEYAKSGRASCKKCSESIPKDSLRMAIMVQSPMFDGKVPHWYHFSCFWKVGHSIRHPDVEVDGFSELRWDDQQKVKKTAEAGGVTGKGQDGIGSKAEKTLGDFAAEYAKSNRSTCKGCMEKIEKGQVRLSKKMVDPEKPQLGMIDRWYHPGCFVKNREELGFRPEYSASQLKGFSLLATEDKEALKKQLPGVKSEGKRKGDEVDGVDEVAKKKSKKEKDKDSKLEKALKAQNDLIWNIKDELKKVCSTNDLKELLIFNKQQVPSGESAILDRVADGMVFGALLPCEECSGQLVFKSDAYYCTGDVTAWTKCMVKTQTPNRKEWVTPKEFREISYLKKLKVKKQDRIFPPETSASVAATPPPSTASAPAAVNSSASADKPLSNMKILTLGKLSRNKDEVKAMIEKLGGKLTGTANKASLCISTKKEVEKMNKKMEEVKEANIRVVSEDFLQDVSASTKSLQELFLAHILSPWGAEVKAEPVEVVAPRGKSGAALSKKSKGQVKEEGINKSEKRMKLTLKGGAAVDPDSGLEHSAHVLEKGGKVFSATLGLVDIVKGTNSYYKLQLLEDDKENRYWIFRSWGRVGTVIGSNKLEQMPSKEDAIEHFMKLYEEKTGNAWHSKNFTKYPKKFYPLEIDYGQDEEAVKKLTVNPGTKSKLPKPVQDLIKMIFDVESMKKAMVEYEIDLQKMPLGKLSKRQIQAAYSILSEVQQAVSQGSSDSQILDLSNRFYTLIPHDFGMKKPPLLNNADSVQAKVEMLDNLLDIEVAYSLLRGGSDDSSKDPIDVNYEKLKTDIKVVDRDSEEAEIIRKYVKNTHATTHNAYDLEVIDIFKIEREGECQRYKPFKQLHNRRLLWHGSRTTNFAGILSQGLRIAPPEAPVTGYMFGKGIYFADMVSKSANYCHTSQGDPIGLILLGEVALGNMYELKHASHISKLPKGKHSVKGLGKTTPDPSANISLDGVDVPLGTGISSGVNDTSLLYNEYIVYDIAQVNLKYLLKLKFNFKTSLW
PARP-2 FL, sequence (Q9UGN5 whole entry): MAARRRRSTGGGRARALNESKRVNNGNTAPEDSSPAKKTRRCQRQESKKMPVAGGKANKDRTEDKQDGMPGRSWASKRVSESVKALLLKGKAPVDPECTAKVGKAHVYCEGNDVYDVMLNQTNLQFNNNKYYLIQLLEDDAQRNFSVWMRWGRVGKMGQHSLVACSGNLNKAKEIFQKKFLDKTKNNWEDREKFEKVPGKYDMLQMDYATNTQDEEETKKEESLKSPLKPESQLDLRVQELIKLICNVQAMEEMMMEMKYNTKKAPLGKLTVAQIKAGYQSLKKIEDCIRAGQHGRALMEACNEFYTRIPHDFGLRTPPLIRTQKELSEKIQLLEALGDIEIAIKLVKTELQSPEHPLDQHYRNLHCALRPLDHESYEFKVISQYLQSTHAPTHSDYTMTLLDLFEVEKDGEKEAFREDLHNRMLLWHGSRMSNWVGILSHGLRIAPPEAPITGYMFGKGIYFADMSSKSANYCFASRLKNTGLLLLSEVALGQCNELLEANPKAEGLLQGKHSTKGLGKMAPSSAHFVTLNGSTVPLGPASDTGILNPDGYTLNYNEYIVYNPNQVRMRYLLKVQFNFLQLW
Experimental for PARP-1 FL: (§1) Affinity of the tested compounds and their selectivity with respect to the different PARP isoforms of interest was quantified in a displacement assay.
(§2) In all of the experiments, the polarization signal was measured using a Saphire2 plate reader (Tecan). Data analysis was performed using Dynafit software. In particular, titration data were fitted to the following equilibria: Enzyme+probe <==> Complex Enzyme-probe, while displacement data were fitted to the following equilibria: Enzyme+probe <==> Complex Enzyme-probe, Enzyme+Compound <==> Complex Enzyme-Compound, whereby binding of probe and compound on the enzyme are mutually exclusive (pure competitive mechanism). Displacement data were also fitted using Excel spreadsheet (Microsoft Inc. Seattle, USA) to a four parameter logistic model (4PL), or Hill-Slope model to calculate DC50s where the DC50 value represents the compound concentration at which the polarization signal is diminished by 50% compared to untreated controls.
(§3) In agreement, affinity binding constants (KD) were determined by fitting with a pure competitive mechanism. KD values are the average of three independent experiments.
Experimental for PARP-2 FL: as §1, §2, §3
Experimental for PARP-3 FL: as §1, §2, §3

In general, AUC refers to the area under the concentration-time curve, a measure of exposure. Read a high AUC as high exposure. For orientation: Kd means the concentration at which binding is half-saturated. A low value points to a tighter complex. A word on the IC50: it is the point on the concentration scale where inhibition reaches its midpoint. `COc1ccc(-c2[nH]c(=O)c3cc(F)ccc3c2OCCN)cc1.Cl` [Compound 25, 4-(2-Amino-ethoxy)-7-fluoro-3-(4-methoxy-phenyl)-2H-isoquinolin-1-one hydrochloride]: in series [1], the “F on AUC” value is 71%, the clearance was 42.2 mL/min/kg, the Vd came to 2.3 L/kg and the AUC was 8.32 µM·h. Moreover, the half-life in series [1] was 2.17 h. On PARP-1 FL, the Kd is under 0.01 µM and the DC50 is under 0.25 µM. Further, half-maximal inhibition in series [2] (IC50) was put at 0.06 µM. Moreover, in series [3] (setting [6]), the “Max TGI (%)” value stood at 18% and the Toxicity was 0/7. Moreover, on PARP-2 FL, binding was characterised by a dissociation constant (Kd) of 0.61 µM and the DC50 was determined as 2.29 µM. On PARP-3 FL, this compound displayed a DC50 of 0.21 µM.
Consider `COc1cccc(-c2[nH]c(=O)c3ccccc3c2OCCN)c1.Cl` [Compound 11, 4-(2-Amino-ethoxy)-3-(3-methoxy-phenyl)-2H-isoquinolin-1-one hydrochloride], for which, in series [1], the “F on AUC” value came out at 64%, the clearance was 120 mL/min/kg, the Vd is 2.6 L/kg and the exposure (AUC) turned out to be 2.94 µM·h. Also, the half-life in series [1] is 1.01 h. On PARP-1 FL, this compound showed a dissociation constant Kd of under 0.03 µM and a DC50 of under 0.25 µM. Further, the IC50 in series [2] turned out to be 0.18 µM. Besides, in series [3] (setting [7]), the “Max TGI (%)” value turned out to be 31% and the Toxicity is given as 0/7. The compound also returned a DC50 on PARP-3 FL of 0.35 µM.
With `Cl.NCCOc1c(-c2ccccc2)[nH]c(=O)c2cc(F)ccc12` [Compound 39, 4-(2-Amino-ethoxy)-7-fluoro-3-phenyl-2H-isoquinolin-1-one hydrochloride], in series [1], the “F on AUC” value amounted to 72%, the clearance worked out at 37.9 mL/min/kg, the Vd was determined as 1.7 L/kg and the area under the curve (AUC) was 11 µM·h. The half-life in series [1] is 1.06 h. For the same compound, at PARP-1 FL, the Kd is under 0.01 µM and the DC50 was under 0.25 µM. Moreover, in series [2], it took 0.06 µM to reach half-maximal inhibition (IC50). Moreover, in series [4] (setting [8]), the Toxicity is 0/7 and the “T − C” value was found to be 3 days. Moreover, the “Interaction of the combination (T−C versus addition of single treatments)” value in series [4] (compound (39) combined with temozolomide) was “strong synergism”. Besides, in series [3] (setting [9]), the “Max TGI (%)” value was 48% and the Toxicity was 0/7. On PARP-2 FL, this compound came in with a Kd of 4.38 µM and a DC50 of 3.32 µM. The DC50 at PARP-3 FL worked out at 0.28 µM.
In the case of `O=C(c1cc(Cc2n[nH]c(=O)c3ccccc23)ccc1F)N1CCN(C(=O)C2CC2)CC1` [AZD2281], the Partial responses in series [5] is recorded as 4 out of 10.
As for `Cn1nnc2c(C(N)=O)ncn2c1=O` [temozolomide, reference compound], in series [4] (setting [10]), the Toxicity is reported as 0/7 and the “T − C” value was determined as 3 days.
Regarding `O=c1[nH]c(-c2cccc(O)c2)c(OCCCN2CCCCC2)c2ccccc12` [Compound 33, 3-(3-Hydroxy-phenyl)-4-(3-piperidin-1-yl-propoxy)-2H-isoquinolin-1-one], in series [1], the “F on AUC” value was 24%, the clearance was 176 mL/min/kg, the Vd worked out at 2.9 L/kg and the AUC was 0.64 µM·h. The half-life in series [1] was 1.11 h. Besides, on PARP-1 FL, the Kd was under 0.03 µM and the DC50 was under 0.25 µM. In series [2], 0.41 µM corresponded to half-maximal inhibition (IC50). On PARP-2 FL, this compound came in with a Kd of 0.25 µM and a DC50 of 0.58 µM. In addition, the DC50 at PARP-3 FL was determined as 0.34 µM.
